Reference: PubChem BioAssay (NCI)
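48-hour exposure; five concentrations; linearly interpolated endpoints. At the TGI there is no net growth.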

Experiments:
Experiment in all cases: DTP human tumour cell line panel, 48 h
SNB-75 CNS = tested on: SNB-75 CNS
SK-MEL-5 melanoma = tested on: SK-MEL-5 melanoma
NCI/ADR-RES ovarian = tested on: NCI/ADR-RES ovarian
SW-620 colon = tested on: SW-620 colon
COLO 205 colon = tested on: COLO 205 colon
MDA-MB-231 breast = tested on: MDA-MB-231 breast
HCC-2998 colon = tested on: HCC-2998 colon
RXF 393 renal = tested on: RXF 393 renal
NCI-H522 lung = tested on: NCI-H522 lung
BT-549 breast = tested on: BT-549 breast
HCT-15 colon = tested on: HCT-15 colon

Measured: TGI

COC1OC(C(=O)O)C2OC(C)(C)OC12 (centres undefined)
> 100 µM: all assays above

CCOC(=O)c1cn(CC)c2ccc3c(c2c1=O)S(=O)(=O)C=C3
> 100 µM: all assays above

COc1ccc(C23OCC(Cc4cc(OC)c(OC)cc42)C3CO)cc1OC (centres undefined)
> 100 µM: all assays above

Cc1nc(Cc2n[nH]c(C)n2)n[nH]1
> 100 µM: all assays above
